Experiments:
[1] = logP (physical data, Table 1); assay type: physicochemical; settings: footnote a) not given
barley cv. “Coronar” = test: Post-emergence test/greenhouse, damage to barley; assay type: in vivo
Method: (§1) The active compound or safener components are in each case dissolved in a little solvent and then—if appropriate after addition of an emulsifier—diluted with water to the desired concentration. […] Acetone and N,N-dimethylformamide are used as preferred solvents. The test plants are grown under controlled conditions (temperature, light, atmospheric humidity) in a greenhouse. […] After spraying, the pots with the test plants are kept in a greenhouse chamber under controlled conditions (temperature, light, atmospheric humidity) until the test has ended. […] The figures denote: 0% =no damage (like untreated control) […] Active compounds, application rates, test plants and results are shown in the tables below, the terms being used in the tables being as defined below: wheat=wheat cv. “Orestis”, barley=barley cv. “Coronar” a.i.=active ingredient=active compound/safener

wheat cv. “Orestis” = test: Post-emergence test/greenhouse, damage to wheat; assay type: in vivo
Method: as §1

Chenopodium = test: Post-emergence test/greenhouse, damage to Chenopodium; assay type: in vivo; settings: Table A3
Method: (§2) The active compound or safener components are in each case dissolved in a little solvent and then—if appropriate after addition of an emulsifier—diluted with water to the desired concentration. Preferably, an aqueous spray liquor is prepared using 0.1% of the additive Renex-36. Acetone and N,N-dimethylformamide are used as preferred solvents.
(§3) The test plants are grown under controlled conditions (temperature, light, atmospheric humidity) in a greenhouse. The test plants are sprayed when they have reached a height of 5-15 cm. The concentration of the spray liquor is chosen such that the particular amounts of active compound desired are applied in 500 l of water/ha.
(§4) After spraying, the pots with the test plants are kept in a greenhouse chamber under controlled conditions (temperature, light, atmospheric humidity) until the test has ended. About three weeks after the application, the degree of damage to the crop plants is rated in % damage in comparison to the development of the untreated control.
(§5) 0% =no damage (like untreated control)
(§6) 100% =total destruction/damage
(§7) Active compounds, application rates, test plants and results are shown in the tables below, the terms being used in the tables being as defined below:
(§8) a.i.=active ingredient=active compound/safener

Amaranthus = test: Post-emergence test/greenhouse, damage to Amaranthus; assay type: in vivo; settings: Table A3
Method: as §2, §3, §4, §5, §6, §7, §8

maize cv. “Pioneer” = test: Post-emergence test/greenhouse, damage to maize; assay type: in vivo; settings: Table A3
Method: as §2, §3, §4, §5, §6, §7
maize=maize cv. “Pioneer”
as §8

[2] = Table A1: sown 31 March, application 19 April (20 days), 125 g of a.i./ha
[3] = Table A1: sown 31 March, application 19 April (20 days), 250 g of a.i./ha
[4] = Table A1: sown 31 March, application 19 April (20 days), 500 g of a.i./ha
[5] = Table A2: sown 12 April, application 10 May (4 weeks), 125 g of a.i./ha
[6] = Table A2: sown 12 April, application 10 May (4 weeks), 250 g of a.i./ha
[7] = Table A2: sown 12 April, application 10 May (4 weeks), 500 g of a.i./ha

## CN1CCCN(Cc2c(S(C)(=O)=O)ccc(C(=O)C3C(=O)CCCC3=O)c2Cl)C1=O [Example I-11]
[1]
  logP: logP = 1.73^a)

## CSc1nn(Cc2cc(C(F)(F)F)ccc2C(=O)C2C(=O)CCCC2=O)c(=O)n1C [Example I-15]
[1]
  logP: logP = 2.59^a)
Barley cv. “Coronar”; [2]
  Damage Barley (in %) (5 days): 40%
  Damage Barley (in %) (20 days): 10%
Barley cv. “Coronar”; [3]
  Damage Barley (in %) (5 days): 50%
  Damage Barley (in %) (20 days): 15%
Barley cv. “Coronar”; [4]
  Damage Barley (in %) (5 days): 50%
  Damage Barley (in %) (20 days): 20%
Barley cv. “Coronar”; [5]
  Damage Barley (in %) (5 days): 35%
  Damage Barley (in %) (20 days): 25%
Barley cv. “Coronar”; [6]
  Damage Barley (in %) (5 days): 35%
  Damage Barley (in %) (20 days): 30%
Barley cv. “Coronar”; [7]
  Damage Barley (in %) (5 days): 35%
  Damage Barley (in %) (20 days): 50%
Wheat cv. “Orestis”; [2]
  Damage Wheat (in %) (5 days): 30%
  Damage Wheat (in %) (20 days): 20%
Wheat cv. “Orestis”; [3]
  Damage Wheat (in %) (5 days): 40%
  Damage Wheat (in %) (20 days): 20%
Wheat cv. “Orestis”; [4]
  Damage Wheat (in %) (5 days): 40%
  Damage Wheat (in %) (20 days): 30%
Wheat cv. “Orestis”; [5]
  Damage Wheat (in %) (5 days): 20%
  Damage Wheat (in %) (20 days): 30%
Wheat cv. “Orestis”; [6]
  Damage Wheat (in %) (5 days): 35%
  Damage Wheat (in %) (20 days): 40%
Wheat cv. “Orestis”; [7]
  Damage Wheat (in %) (5 days): 35%
  Damage Wheat (in %) (20 days): 50%

## COc1nn(Cc2cc(C(F)(F)F)ccc2C(=O)C2C(=O)CCCC2=O)c(=O)n1C [Example I-5]
[1]
  logP: logP = 2.35^a)
Chenopodium; 30 g of a.i./ha
  Damage Chenopodium (in %): 100%
Chenopodium; 60 g of a.i./ha
  Damage Chenopodium (in %): 100%
Chenopodium; 125 g of a.i./ha
  Damage Chenopodium (in %): 100%
Amaranthus; 30 g of a.i./ha
  Damage Amaranthus (in %): 100%
Amaranthus; 60 g of a.i./ha
  Damage Amaranthus (in %): 100%
Amaranthus; 125 g of a.i./ha
  Damage Amaranthus (in %): 100%
Maize cv. “Pioneer”; 30 g of a.i./ha
  Damage Maize (in %): 30%
Maize cv. “Pioneer”; 60 g of a.i./ha
  Damage Maize (in %): 60%
Maize cv. “Pioneer”; 125 g of a.i./ha
  Damage Maize (in %): 70%

## COc1c(C(=O)c2cnoc2C2CC2)ccc(Cl)c1CN1CCN(C)C1=O [Example I-14]
[1]
  logP: logP = 2.46^a)

## CCN1CCCN(Cc2c(S(C)(=O)=O)ccc(C(=O)C3C(=O)CCCC3=O)c2Cl)C1=O [Example I-12]
[1]
  logP: logP = 1.96^a)

From patent US20040132619A1, “Selective substituted aryl ketone and safener based herbicides” (priority 2001, published 2004)
